Key:
[1] = tested on: IL-8 secretion in human monocyte cell line THP-1; assay: Inhibition of LPS-triggered secretion of cytokine IL-8 in THP-1 cells (ELISA); assay type: cell-based; conditions: for IC50: Homo sapiens, THP-1 cells, LPS-triggered, ELISA of supernatant, read-out: IC50(IL8); for efficacy of IL-8 inhibition: in comparison with dexamethasone as reference
Method: The concentration of the cytokines was determined in the supernatant by means of commercially available ELISA kits.

[2] = target: T1, glucocorticoid receptor (GR) (Homo sapiens, UniProt P04150); assay: Binding to the glucocorticoid receptor (GR), recombinant receptor in cytosol preparations of Sf9 cells, [3H]-dexamethasone as reference; conditions: reference [3H]-dexamethasone
T1 construct: made in house; host or cells: Sf9 insect cells infected with recombinant baculovirus; cytosol preparation
T1 sequence (P04150 1-777): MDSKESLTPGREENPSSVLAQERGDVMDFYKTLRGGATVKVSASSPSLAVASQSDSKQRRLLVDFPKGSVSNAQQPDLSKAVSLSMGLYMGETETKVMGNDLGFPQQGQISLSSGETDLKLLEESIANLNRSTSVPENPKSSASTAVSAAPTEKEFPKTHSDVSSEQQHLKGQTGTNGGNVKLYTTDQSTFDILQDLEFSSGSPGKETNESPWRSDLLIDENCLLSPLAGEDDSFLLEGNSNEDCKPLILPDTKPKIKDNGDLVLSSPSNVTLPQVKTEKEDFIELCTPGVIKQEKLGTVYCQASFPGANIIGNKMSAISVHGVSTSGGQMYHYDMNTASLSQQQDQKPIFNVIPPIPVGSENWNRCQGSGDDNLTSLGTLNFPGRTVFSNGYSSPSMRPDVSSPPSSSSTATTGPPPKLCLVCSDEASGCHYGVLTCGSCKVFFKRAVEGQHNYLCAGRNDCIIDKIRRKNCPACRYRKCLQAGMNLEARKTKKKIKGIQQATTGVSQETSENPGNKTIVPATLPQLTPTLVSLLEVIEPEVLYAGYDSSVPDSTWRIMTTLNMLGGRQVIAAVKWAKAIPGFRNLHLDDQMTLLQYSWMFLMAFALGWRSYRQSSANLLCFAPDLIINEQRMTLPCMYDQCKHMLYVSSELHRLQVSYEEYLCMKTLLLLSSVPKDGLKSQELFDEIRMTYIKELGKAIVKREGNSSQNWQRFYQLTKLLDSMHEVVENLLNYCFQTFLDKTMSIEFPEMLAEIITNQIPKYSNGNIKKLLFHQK
From the text: The binding of the substances to the glucocorticoid receptor (GR) and other steroid hormone receptors (mineral corticoid receptor (MR), progesterone receptor (PR) and androgen receptor (AR)) is examined with the aid of recombinantly produced receptors. Cytosol preparations of Sf9 cells, which had been infected with recombinant baculoviruses, which code for the GR, are used for the binding studies. In comparison to reference substance [^3H]-dexamethasone, the substances show a high to very high affinity to GR.

| SMILES | IC50 [1] [nM] | efficacy of IL-8 inhibition [1] [%] | IC50 [2] [nM] |
| --- | --- | --- | --- |
| CCSCC(O)(C(Nc1cc(F)cc2[nH]c(=O)ccc12)c1ccc(OC)c(F)c1Cl)C(F)(F)F (stereo not drawn) [Example 4, 5-{[1-(2-Chloro-3-fluoro-4-methoxyphenyl)-2-([ethylsulfanyl]methyl)-3,3,3-trifluoro-2-hydroxypropyl]amino}-7-fluoro-1H-quinolin-2-one] | 0.61 | 97 | 5.7 |
| COc1c(F)cc(Cl)cc1C(Nc1cc(F)cc2[nH]c(=O)ccc12)C(O)(CO)C(F)(F)F (stereo not drawn) [Example 8, 5-{[1-(5-Chloro-3-fluoro-2-methoxyphenyl)-3,3,3-trifluoro-2-hydroxy-2-(hydroxymethyl)-propyl]amino}-7-fluoro-1H-quinolin-2-one] | 3.1 | 80 |  |
| COc1ccc(C(Nc2cccc3[nH]c(=O)ccc23)C(O)(CSC)C(F)(F)F)c(F)c1 (stereo not drawn) [Example 1, 5-{[1-(2-Fluoro-4-methoxyphenyl)-3,3,3-trifluoro-2-hydroxy-2-([methylsulfanyl]methyl)propyl]amino}-1H-quinolin-2-one] |  |  | 6.8 |
| COc1ccc(C(Nc2cc(F)cc3[nH]c(=O)ccc23)C(O)(CO)C(F)(F)F)c(Cl)c1F (stereo not drawn) [Example 7, 5-{[1-(2-Chloro-3-fluoro-4-methoxyphenyl)-3,3,3-trifluoro-2-hydroxy-2-(hydroxymethyl)-propyl]amino}-7-fluoro-1H-quinolin-2-one] | 0.44 | 98 | 7.1 |
| COCC(O)(C(Nc1cc(F)cc2[nH]c(=O)ccc12)c1ccc(OC)c(F)c1Cl)C(F)(F)F (stereo not drawn) [Example 5, 5-{[1-(2-Chloro-3-fluoro-4-methoxyphenyl)-3,3,3-trifluoro-2-hydroxy-2-(methoxymethyl)propyl]amino}-7-fluoro-1H-quinolin-2-one] | 0.19 | 98 | 3.1 |

Source: patent USRE47047E1, “5-[(3,3,3-trifluoro-2-hydroxy-1-arylpropyl)amino]-1H-quinolin-2-ones, a process for their production and their use as anti-inflammatory agents” (ASTRAZENECA AB, priority 2007, dated 2018)
